Results as given in patent US20230303710A1, “METHODS AND COMPOSITIONS FOR INHIBITION OF DIHYDROOROTATE DEHYDROGENASE IN COMBINATION WITH AN ANTI-CD38 THERAPEUTIC AGENT” (OHIO STATE INNOVATION FOUNDATION, priority 2019, published 2023).
pEC50: −log10 of the molar value.

How the values were obtained:
[1] = tested on: MV-411 cells with mutant p53; test: CD38 surface expression by flow cytometry in MV-411 cells with mutant p53; assay type: cell-based; details: 1 µM, 72 hours, versus vehicle
Procedure: (§1) FIGS. 1A-1B show representative data for the effect of a representative DHODH inhibitor on the expression of CD38 in AML cells. Briefly, MV-411 cells with wild type (WT) p53 (FIG. 1A) or mutant p53 (FIG. 1B) were treated with brequinar (BRQ, 1 µM), or Cpd3 (1 µM) for 72 hours, and then the CD38 surface expression was determined by flow cytometry. The CD38 mean fluorescent intensity (MFI) is calculated based on the X-median expression.
(§2) MV-411 cells with wild type (WT) p53 or mutant p53 were treated with brequinar (BRQ, 1 µM), or Cpd3 (1 µM) for 72 hours. CD38 surface expression was determined by flow cytometry. The CD38 mean fluorescent intensity (MFI) is calculated based on the X-median expression. FIG. 1A show data obtained with MV-411 having wild type p53. […] FIG. 1B show the results obtained with MV-411 having a mutant p53.

[2] = tested on: MV-411 cells with wild type (WT) p53; test: CD38 surface expression by flow cytometry in MV-411 cells with wild type p53; assay type: cell-based; details: 1 µM, 72 hours, versus vehicle
Procedure: as §1, §2

MOLM-13 cells = test: MOLM-13 xenograft survival study in NCG mice; assay type: in vivo; details: Cpd4 10 mg/kg PO TIWK (MWF); Daratumumab 1 µg/g IP TF; Isatuximab 2.5 mg/kg IP TF; start 4 days post engraftment; vehicle 16.5
Procedure: Xenograft Model Methodology. Animal studies were performed at Charles River Laboratories (CRL). 1E5 MOLM-13 cells were engrafted intravenously into NCG mice (males, 8-12-week old). 4 days post engraftment, mice were randomly enrolled to receive: • 1. Vehicle • 2. 10 mg/kg Cpd 53 orally (daily) • 3. 10 mg/kg Cpd 53 orally (TIWK, Monday, Wednesday, and Friday) • 4. 4 mg/kg BAY2402234 orally (daily) • 5. 1 µg/g Daratumumab via intraperitoneal injection (BIWK, Tuesday and Friday) • 6. 2.5 µg/g Isatuximab via intraperitoneal injection (BIWK, Tuesday and Friday) • 7. Cpd4 (daily) and Daratumumab (BIWK) combination • 8. Cpd4 (TIWK) and Daratumumab (BIWK) combination • 9. BAY2402234 (daily) and Daratumumab (BIWK) combination • 10. Cpd4 (daily) and Isatuximab (BIWK) combination • 11. […]
Procedures used in the study are as follows: • Mice with 1×10^5 MOLM-13 tumor cells in 0% Matrigel iv tail vein. • Study start is 4 days post implant • Animals were randomized into treatment groups based on Day 1 bodyweight. • Cell Injection Volume was 0.2 mL/mouse. • Age at Start Date: 8 to 12 weeks. • Body Weight: qd x 5 then biwk to end • Any individual animal with a single observation of > than 30% body weight loss or three consecutive measurements of >25% body weight loss was euthanized. • Any group with a mean body weight loss of >20 % or >10% mortality ceased dosing. […] Animals were to be monitored individually. […]

MV4-11 cells = test: MV4-11 xenograft (secondary engraftment) survival study in NSG mice; assay type: in vivo; details: Cpd3 50 mg/kg PO MWF, daratumumab 1 µg/g IP TF
Procedure: FIGS. 2A-2D show representative data for the effect of a representative DHODH inhibitor in combination with an anti-CD38 antibody in a mouse xenograft model. FIG. 2A show representative data for percent survival versus time post-engraftment. Briefly, NSG mice were injected with 0.3 × 10^6 spleen cells from an MV4-11 engrafted leukemic donor mouse (N=7 per group). Starting at day 7 post-engraftment, mice were treated with vehicle; 50 mg/kg Cpd3 (PO; indicated as “Cpd3 PO” in the figure) on a dosing schedule of Monday/Wednesday/Friday (MWF); 1 µg/g daratumumab (IP; indicated as “Dara IP” in the figure) on a dosing schedule of Tuesday and Friday (TF); or Cpd3 and daratumumab combination (indicated as “Cpd3+Dara” in the figure). The Cpd3 and daratumumab combination treatment comprised dosing with 50 mg/kg Cpd3 on a dosing scheduled of Monday/Wednesday/Friday and dosing with 1 µg/g daratumumab on a dosing schedule of Tuesday and Friday (TF). Mice were monitored until reaching early/end removal criteria (ERC) and overall survival was calculated using Kapler Meyer analysis. The arrow indicates start of treatment. […] The treatment type is indicated below each photographic image as outlined for FIG. 2A. […] Weight loss is typically associated with leukemia progression and has also been associated with DHODH inhibitor treatment. […] Briefly, Spleens were isolated from the animals from each treatment group as they reached ERC. The percentage of human CD45+ cells in the spleen were determined by flow cytometry.
Xenograft Model Methodology. Animal studies were approved by the Institutional Laboratory Animal Care and Use Committee (IACUC) at the Ohio State University. 1E7 M4-11 cells were engrafted intravenously into NSG mice (males, 12-week old, strain NOD.Cg-Prkdcscid ll2rgtm1Wjl/SzJ). These mice were allowed to develop a fatal leukemia, at which point splenocytes containing leukemia cells were collected and cryopreserved. […] Overall survival was calculated using Kapler Meyer analysis. […]

[3] = tested on: a variety of unrelated viruses; details: Harvey et al. (2009) Antiviral Res.; read-out: EC50, inhibition of virus replication in vitro; cited from earlier work

In the case of Cc1c(-c2ccc(-c3ccccc3F)cc2)nc2ccc(F)cc2c1C(=O)O [brequinar, reference compound], the “CD38 surface expression (mean fluorescent intensity)” value (“CD38 surface expression” for short) [1] was “highly upregulated” and the “CD38 surface expression” value [2] was “upregulated”.

In the case of CCCCOc1cccc(-c2ccc(-c3cc(C(=O)O)c4cc(F)ccc4n3)cc2)c1 [Cpd4, 2-(3′-butoxy-[1,1′-biphenyl]-4-yl)-6-fluoroquinoline-4-carboxylic acid], the “Median survival” value (MOLM-13 cells) was 43 days.

With CCOc1ccc(-c2ccc(-c3cc(C(=O)O)c4cc(F)ccc4n3)cc2)cc1 [Cpd3, 2-(4′-ethoxy-[1,1′-biphenyl]-4-yl)-6-fluoroquinoline-4-carboxylic acid] the “CD38 surface expression” value [1] was “highly upregulated”, the “CD38 surface expression” value [2] was “upregulated” and the “survival compared to the vehicle treatment control group / other treatment groups” value (MV4-11 cells; FIG. 2A) was “modest improvement in survival”. The “Estimated median survival time (days PE)” value (MV4-11 cells; start day 7 post-engraftment, vehicle 35 days) was 42 days and the N died (MV4-11 cells; N=7 per group, start day 7 post-engraftment) was 7.

For O=C(N[C@@H]1CCCc2c1[nH]c1ccc(Cl)cc21)c1ccccn1 [GSK983], the pEC50 [3] is listed as 7.70 to 8.30.
